Reference: patent US8721858B2, “Non-focusing tracers for indirect detection in electrophoretic displacement techniques” (The Board of Trustees of the Leland Stanford Junior …, priority 2010, dated 2014)

Experiments:
[1] = limiting fully ionized mobility, value = mobility × 10^9; cited from earlier work
[2] = Estimated effective mobilities in ITP zones of FIGS. 4a-b; settings: % of −17.8×10^−9 m^2V^−1s^−1
Text: We used numerical codes to predict the composition, pH, and fluorescence intensity of each zone for assay design and theory validation. Transient and steady state problems can be simulated with programs such as Simul 5, or a MATLAB-based program developed in-house. For fast solution of most problems, however, we used a steady-state solver written in-house based on the RFQ method described by Beckers and Everaerts. This code adjusts ion mobility and pKa for ionic strength based on the Davies equation and Robinson-Stokes model, respectively. See Table 1 above for the limiting electrophoretic mobilities and pKas of example chemicals used in simulations.
Further details relating to FIGS. 4a-b are as follows. FIGS. 4a-b show detection of HEPES and MOPS with a counterionic (FIG. 4a) and overspeeding coionic (FIG. 4b) fluorescent non-focusing tracer. Top panes are ratios of zone intensities IA/IL, and bottom panes are corresponding images. The zones are, from left to right, TE (tricine), HEPES, MOPS, and LE (MES). The concentration of the tracer increases in high mobility zones. The mobility of the coionic tracer Alexa Fluor 488 (AF488) is close to that of MES, so it is especially sensitive in this region. […]. […] For the left plots, the LE contains 50 μM R6G. For the right plots, the TE contains 5 μM AF488. […].
As discussed in Theory, the sensitivity of counterspeeders tends to be approximately uniform for all analyte mobilities. In contrast, underspeeders and overspeeders offer the potential advantage of extreme sensitivity to analytes with mobilities approximately equal to that of the tracer. In FIGS. 4a-b, we estimate the effective mobility of the LE (MES) to be −17.8×10^−9 m^2V^−1s^−1, and the effective mobilities of MOPS, HEPES, and tricine to be respectively 58%, 41%, and 30% of that value. For the counterspeeder of FIG. 4a, the ratios of analyte-to-LE zone intensities are similar to the effective mobility ratios for MOPS, HEPES, and tricine (I/IL values of 0.69, 0.51, and 0.34, respectively). […]

effective mobility relative to that of the LE (MES) [2] [%] | Structure (SMILES) | fully-ionized Mobility · 10^9 [1]
– | CC(=O)O [Acetic acid] | (−1, 42.4) m^2V^−1s^−1
– | [Ba+2].[OH-].[OH-] [Ba(OH)2] | (+2 ,66) m^2V^−1s^−1
– | Cl [Chloride] | (−1, 79.1) m^2V^−1s^−1
41 | O=S(=O)(O)CCN1CCN(CCO)CC1 [HEPES, 2-[4-(2-hydroxyethyl)piperazin-1-yl]ethanesulfonic acid] | (−1, 21.8) m^2V^−1s^−1
58 | O=S(=O)(O)CCCN1CCOCC1 [MOPS, 3-morpholinopropane-1-sulfonic acid] | –
30 | O=C(O)CNC(CO)(CO)CO [Tricine, N-(2-Hydroxy-1,1-bis(hydroxymethyl)ethyl)glycine] | (−1, 26.6) m^2V^−1s^−1
– | NC(CO)(CO)CO [Tris, 2-Amino-2-hydroxymethyl-propane-1,3-diol] | (−1, 29.5) m^2V^−1s^−1
